Data published in patent publication US20210338647A1, “Combination of Acetylcholinesterase Inhibitor and 5-HT4 Receptor Agonist As Neuroprotective Agent In the Treatment of Neurodegenerative Diseases” (UNIVERSITE DE CAEN NORMANDIE, priority 2018, published 2021).

Experiments:
Type in all cases: in vivo, mouse
5XFAD mice [1] = experiment: Astrogliosis (GFAP staining) in brain sections of 5XFAD mice; conditions: 1 mg/kg twice a week for 3 months, versus controls
Procedure: (§1) 5XFAD mice received chronic treatments with drugs or vehicle according to 2 different protocols. In each experiment, drugs or vehicle solution were administered i.p. twice a week (1 mg/kg). In “Protocol 1”, mice (n=6-7 mice per group) were treated with compounds for two months, from 2 to 4 months of age. In “Protocol 2”, mice (n=7) were treated with compounds for three months, from 1 month to 4 months of age. At the end of each protocol, mice were anesthetized with a mixture of 100 mg/kg ketamine and 10 mg/kg xylazine in saline solution and perfused transcardially with PBS. Brains were quickly isolated on ice, the olfactory bulbs and cerebellum removed and the two hemispheres divided. One hemisphere was frozen on dry ice and stored at −80° C. for biochemical analysis, while the other was post-fixed in 4% PFA for immunohistochemistry (IHC).
Thirty-micrometer-thick sections were cut using a vibratome (Microm HM 650V, Thermo Scientific, Saint Herblain, France) and stored in cryoprotectant medium at −20° C. For the labeling of amyloid plaques, free-floating tissue sections of frontal cortex, hippocampus and entorhinal cortex (coordinates from the bregma: frontal cortex=1.98 mm, hippocampus=−1.94 mm, entorhinal cortex=−3.08 mm) were extensively washed in PBS and then incubated in blocking solution (PBS; 3% BSA; 0.1% Triton X-100) for 1 h. Sections were stained with Hoechst dye (1:1000, Life Technologies, Saint Aubin, France) for 15 minutes to detect cell nuclei and then with freshly prepared thioflavin T solution (#T3516-5G, Sigma-Aldrich) (final concentration: 0.01 mg/ml in blocking buffer) for 15 minutes. After washing in 70% ethanol for 5 minutes, samples were mounted on poly-lysine slides with coverslips. For GFAP (glial fibrillary acidic protein) staining, free-floating brain sections were blocked as before and incubated with polyclonal rabbit anti-GFAP (1:1000, Z0334, Dako, Les Ullis, France) at 4° C. overnight. After thioflavin T staining and washing with 70% ethanol, the secondary Alexafluor 594 goat anti-rabbit antibody (1:1000, A11012, Life Technologies) was added for 2 h. PBS washes and mounting were performed as described before.
Images were acquired with an Axiolmager Z1 microscope (Carl Zeiss S.A.S., Marly le Roi, France). Analysis of thioflavin T staining was performed blindly and data are presented as the mean number of particles per mm^2 in two to three tissue sections from the same brain area/animal (Image J software). GFAP expression was quantified using Image J software and results are expressed as area fractions.
(§2) 28 female 5XFAD mice (C57BL/6J genetic background) were used in this study. Mice received vehicle or compounds (1 mg/kg) i.p., twice a week for three months, from 1 to 4 months of age.

5XFAD mice [2] = experiment: Amyloid plaque number (thioflavin T staining) in brain sections of 5XFAD mice; conditions: 1 mg/kg twice a week for 3 months, versus controls
Procedure: as §1
Thirty-micrometer-thick sections were cut using a vibratome (Microm HM 650V, Thermo Scientific, Saint Herblain, France) and stored in cryoprotectant medium at −20° C. […]
Images were acquired with an Axiolmager Z1 microscope (Carl Zeiss S.A.S., Marly le Roi, France). […] GFAP expression was quantified using Image J software and results are expressed as area fractions. […]

5XFAD mice [3] = experiment: Aβ42 concentration in cerebrospinal fluid of chronically treated 5XFAD mice; conditions: 1 mg/kg twice a week for 3 months, versus controls
Procedure: as §1, §2

5XFAD mice [4] = experiment: Novel object recognition test in chronically treated 5XFAD mice; conditions: 5XFAD females; 1 mg/kg twice a week for 3 months; 24 h interval between training and test
Procedure: as §1, §2

CCCCN1CCC(CCC(=O)c2cc(Cl)c(N)cc2OC)CC1 [RS67333, 1-(4-amino-5-chloro-2-methoxy-phenyl)-3-(1-butyl-4-piperidinyl)-1-propanone]
GFAP staining in frontal cortex (5XFAD mice [1]): not significantly different compared to controls
GFAP staining in hippocampus (5XFAD mice [1]): not significantly different compared to controls
Amyloid plaque number in hippocampus (5XFAD mice [2]): not significantly different compared to controls
Aβ42 concentration in cerebrospinal fluid (CSF) (5XFAD mice [3]): not significantly different compared to controls
Recognition memory: time exploring novel versus familiar object (NOR test) (5XFAD mice [4]): reverses cognitive impairment
